{"source": "patent US12311060B2", "about": "(priority 2017, dated 2025)", "origin": "cited, not measured here", "settings": "rodent models"}
{"smiles": "C/C=C1\\C2C=C(C)C[C@]1(N)c1ccc(=O)[nH]c1C2", "note": "(stereo in doubt) [huperzine A, (1R,9S,13E)-1-amino-13-ethylidene-11-methyl-6-azatricyclo[7.3.1.02,7]trideca-2(7),3,10-trien-5-one]", "values": [{"measurement": "efficacy as an anticonvulsant in words", "result": "very high efficacy"}]}
